Measured values as given in PubChem BioAssay (NCI).
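Step 1: Grow cells in 96-well plates. Step 2: Expose to compound for 48 hours at 5 concentrations. Step 3: Interpolate endpoints linearly; if unreached, use highest concentration. GI50 = concentration required for 50% inhibition of growth. The concentration for full growth arrest is given as TGI.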

Legend:
Assay in all cases: DTP human tumour cell line panel, 48 h
[1] = system: SF-295 CNS
[2] = system: DU-145 prostate
[3] = system: SK-MEL-2 melanoma
[4] = system: SK-MEL-5 melanoma
[5] = system: A549 NSCLC
[6] = system: NCI-H460 lung
[7] = system: PC-3 prostate
[8] = system: OVCAR-3 ovarian
[9] = system: SF-268 CNS
[10] = system: RXF 393 renal

Structure (SMILES)	TGI [1]	TGI [2]	TGI [3]	TGI [4]	TGI [5]	TGI [6]	TGI [7]	TGI [8]	TGI [9]	TGI [10]	GI50 [1]	GI50 [3]	GI50 [4]	GI50 [5]	GI50 [6]	GI50 [7]	GI50 [8]	GI50 [10]	GI50 [9]
CCCCCCCCCCCCCCCCOc1ccc(/C=C/C2=[N+](CCCl)CCO2)cc1	> 100 µM	> 100 µM	> 100 µM	> 100 µM	> 100 µM	> 100 µM	> 100 µM	> 100 µM											
CC(C)N(/C(F)=N\C(=O)Nc1ccccc1C(F)(F)F)C(C)C	> 100 µM		78.5 µM	> 100 µM	> 100 µM	> 100 µM	> 100 µM	> 100 µM	> 100 µM										
O=C1CCCC2=C1CC1=C(CCCC1=O)N2c1cccc([N+](=O)[O-])c1				> 100 µM	> 100 µM	> 100 µM	> 100 µM	> 100 µM	> 100 µM	> 100 µM									
O=c1[nH]c(=O)n2n1C1C=CC2CC1	> 100 µM	> 100 µM	> 100 µM	> 100 µM	> 100 µM	> 100 µM	> 100 µM	> 100 µM	> 100 µM										
CCN(CC)CC(=O)Nc1ccc2c(c1)C(=O)c1ccc(NC(=O)CN(CC)CC)cc1C2=O	> 100 µM		> 100 µM	48.9 µM	> 100 µM	31.5 µM			82.7 µM	29.7 µM									
C[C@]12CCc3sc(-c4cccc(F)c4)nc3C1=CC[C@@H]1[C@@H]2CC[C@]2(C)C(=O)CC[C@@H]12	4.91 µM		10.7 µM	16.9 µM	31.5 µM	8.27 µM	14.2 µM	3.79 µM	18.9 µM	2.94 µM	1.59 µM	2.74 µM	4.05 µM	3.95 µM	2.78 µM	3.08 µM	1.92 µM	1.41 µM	3.15 µM
COc1cc2cc3c4c(cc(OC)c(OC)c4c2cc1OC)CCN3C(=O)CCC(=O)O	> 100 µM		> 100 µM	> 100 µM	> 100 µM			> 100 µM	> 100 µM	> 100 µM									
COc1cc2cc(C(=O)N3CC(CCl)c4c3cc(O)c3ccccc43)[nH]c2c(OC)c1OC (stereo not drawn)		> 50 µM	< 0.005 µM	0.00656 µM	> 50 µM	< 0.005 µM		8.42 µM	10.8 µM	< 0.005 µM									
CCc1c(C)c2ccc(OCC(=O)N=Nc3c(O)[nH]c4ccccc34)c(C)c2oc1=O			> 33.3 µM	> 33.3 µM	> 33.3 µM							> 33.3 µM	1.06 µM	> 33.3 µM					
